# Source: patent publication US5733917A, “Heterocyclic compound” (Taisho Pharmaceutical Co., Ltd., priority 1994, dated 1998)
# Where two headings read alike, the source gives them in different places.
# What was measured:
# [1] = target: T1, serotonin 4 receptor (Cavia porcellus, UniProt O70528); assay: Stimulating action test on serotonin 4 receptor: twitch responses in electrically stimulated longitudinal muscle strips of guinea pig ileum; type: cell-based, guinea pig (Hartley)
# T1 construct: from tissue; host or cells: ileum longitudinal muscle strips of Hartley guinea pigs
# T1 sequence (O70528 whole entry): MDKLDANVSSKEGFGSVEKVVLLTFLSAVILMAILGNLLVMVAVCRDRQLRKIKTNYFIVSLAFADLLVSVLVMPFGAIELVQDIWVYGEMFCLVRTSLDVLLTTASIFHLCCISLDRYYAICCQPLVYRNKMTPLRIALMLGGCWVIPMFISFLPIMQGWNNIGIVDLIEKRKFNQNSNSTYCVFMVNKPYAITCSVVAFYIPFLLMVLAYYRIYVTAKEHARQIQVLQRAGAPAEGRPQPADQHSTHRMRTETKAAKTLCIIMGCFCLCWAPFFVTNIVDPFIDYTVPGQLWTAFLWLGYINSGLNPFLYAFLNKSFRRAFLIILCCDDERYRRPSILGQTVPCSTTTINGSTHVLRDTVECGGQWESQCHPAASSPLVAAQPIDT
# From the text: Stimulating Action Test on Serotonin 4 Receptor Test Drugs
# Test Drug 1: Compound 1 of the present invention
# Test Drug 2: The compound described in Japanese Patent Kokai No. 3-197462 represented by the following formula: [drawing 5]
# Test Drug 3: The compound described in Japanese Patent Kokai No. 4-226980 represented by the following formula: [drawing 6]
# Twitch responses were examined in longitudinal muscle strips of guinea pig according to a modification of the method described in The Journal of Pharmacology and Experimental Therapeutics, vol. 252, page 1378, 1990.
# From Hartley guinea pigs, a section of ileum 25 cm in length and proximal to the ileocecal junction was removed. The longitudinal muscle strips obtained from two segments of ileum about 4 cm each in length were used for this test. The longitudinal muscle strips were suspended in Kreb's solution at 32° to 34° C. and bubbled with 95% O2 and 5% CO2 under a load of about 0.8 g. The responses were recorded under an electrical stimulation of 0.2 Hz, 1 msec pulse duration, using force displacement transducers. The longitudinal muscle strips were allowed to stand at supramaximal voltage for about an hour, and thereby were stable. After it was confirmed that the twitch responses were enhanced by 10^-8 M 5-HT, each test drug was examined on its activity for twitch responses. The test was carried out by exposing the strips to cumulative additions of the test drug at least at 45 minute intervals.
# [2] = test system: gastrointestinal motor; assay: Action on gastrointestinal motor in dogs (strain gauge force transducers, motility index); type: in vivo, Beagle dogs; settings: for Motility Index: dog, gastric motor after feeding
# Protocol: Action on Gastrointestinal Motor in Dogs
# The test was carried out by a modification of the method described in Gastroenterologia Japonica, vol. 12, page 275, 1977.
# Beagle dogs of both sexes weighing 9 to 15 kg were anesthetized with sodium pentobarbital and strain gauge force transducers were sutured on 5 portions, i.e. for determining antral, duodenum, jejunal, ileal and colonel motor responses. A cannula for administering a drug was mounted persistently into the jugular vein. After recovery of the surgery, motor responses of the dog under no-anesthesia without restriction at those portions on the gastrointestinal tract in both during a fasting period and after feeding were determined in the conscious […].
# (§1) The compound of the present invention was administered after dissolving in saline aqueous solution.
# The motor index is shown in terms of a proportion (%) of a mean value calculated for 15 minutes to a value prior to administration (0 minute). The value for 0 minute was made a mean value for 30 minutes prior to the administration.
# Tables 2 and 3 show the activity of the compound of the present invention in doses of 0.3 mg/kg for intravenous route and 1 mg/kg for oral route, respectively, on the gastric motor action after feeding.
# [3] = test system: gastric emptying; assay: Action on gastric emptying in rats (clonidine-treated, residual rate of glass balls in stomach); type: in vivo, Male wistar rats; settings: rat; for Residual rate in Stomach: relative to clonidine hydrochloride-treated animal
# Protocol: Action on Gastric Emptying in Rats
# The test was carried out by a modification of the method described in British Journal of Pharmacology, vol. 91, page 263, 1987.
# Male wistar rats weighing 170 to 220 g were used after fasting for 24 hours.
# Clonidine hydrochloride of 30 μg/kg was administered subcutaneously, and after 30 minutes the compound of the present invention was administered subcutaneously. After 30 minutes 1 ml of glass balls (500 mg/ml) was administered orally. After 30 minutes the glass balls remained in the stomach were recovered and weighed to determine the rate [residual rate in stomach (%)] to the residual amount in the stomach of the clonidine hydrochloride-treated animal.
# as §1
# [4] = Toxicity examination of mouse single administration (acute toxicity); settings: in vivo, single oral administration, read-out: LD value
# Protocol: With respect to toxicity of Compound (1) represented by Formula (I) which is an effective ingredient of the pharmaceutical composition of the present invention, as a result of the toxicity examination of mouse single administration (acute toxicity), the LD value is more than 500 mg/kg by oral administration.
# [5] = test system: serotonin 4 receptors; settings: stimulants of serotonin 4 receptors; Alimentary Pharmacology and Therapeutics, vol. 6, page 273, 1992; cited from earlier work
# [6] = guinea pig ileum longitudinal muscle strips, electrical stimulation 0.2 Hz, 1 msec, cumulative additions at least at 45 minute intervals, read-out: ED50 (the source's name)
structure (smiles),measurement,setting,value
NCCc1c[nH]c2ccc(O)cc12 [Compound 5-HT],twitch responses,"[1]; 10^-8 M 5-HT, confirmation before test drug",enhanced
"CC(C)n1c(=O)c(C(=O)O[C@H]2C[C@H]3CC[C@@H](C2)N3C)cc2ccccc21 [Compound (1), endo-(8-methyl-8-azabicyclo[3.2.1]oct-3-yl) 1-isopropyl-2(1H)-quinolone-3-carboxylate]",Motility Index,"[2]; intravenous 0.3 mg/kg, 0 min (value prior to administration, = 100), N = 3",100%
same,Motility Index,"[2]; intravenous 0.3 mg/kg, 15 min, N = 3, p < 0.05",247.8%
same,Motility Index,"[2]; intravenous 0.3 mg/kg, 30 min, N = 3, p < 0.01",219.8%
same,Motility Index,"[2]; intravenous 0.3 mg/kg, 45 min, N = 3, p < 0.01",178.8%
same,Motility Index,"[2]; intravenous 0.3 mg/kg, 60 min, N = 3, p < 0.01",162.3%
same,Motility Index,"[2]; intravenous 0.3 mg/kg, 75 min, N = 3, p < 0.001",181.0%
same,Motility Index,"[2]; intravenous 0.3 mg/kg, 90 min, N = 3",166.7%
same,Motility Index,"[2]; intravenous 0.3 mg/kg, 105 min, N = 3",150.1%
same,Motility Index,"[2]; intravenous 0.3 mg/kg, 120 min, N = 3",123.5%
same,Motility Index,"[2]; oral 1 mg/kg, 0 min (value prior to administration, = 100), N = 3",100%
same,Motility Index,"[2]; oral 1 mg/kg, 15 min, N = 3",179.5%
same,Motility Index,"[2]; oral 1 mg/kg, 30 min, N = 3",238.6%
same,Motility Index,"[2]; oral 1 mg/kg, 45 min, N = 3",295.0%
same,Motility Index,"[2]; oral 1 mg/kg, 60 min, N = 3",238.8%
same,Motility Index,"[2]; oral 1 mg/kg, 75 min, N = 3",252.3%
same,Motility Index,"[2]; oral 1 mg/kg, 90 min, N = 3",193.9%
same,Motility Index,"[2]; oral 1 mg/kg, 105 min, N = 3",251.7%
same,Motility Index,"[2]; oral 1 mg/kg, 120 min, N = 3",257.8%
same,Motility Index,"[2]; oral 1 mg/kg, 135 min, N = 3, p < 0.05",220.6%
same,Motility Index,"[2]; oral 1 mg/kg, 150 min, N = 3",158.1%
same,Motility Index,"[2]; oral 1 mg/kg, 165 min, N = 3",201.9%
same,Motility Index,"[2]; oral 1 mg/kg, 180 min, N = 3, p < 0.05",188.9%
same,motor action on the gastrointestinal tract,"[2]; intravenous and oral administrations, both during the fasting period and after feeding, vehicle alone no influence",showed acceleration on the motor action on the gastrointestinal tract
same,Residual rate in Stomach,"[3]; subcutaneous 0.03 mg/kg, 5 cases",59.2%
same,Residual rate in Stomach,"[3]; subcutaneous 0.1 mg/kg, 5 cases",50.4%
same,Residual rate in Stomach,"[3]; subcutaneous 0.3 mg/kg, 6 cases",38.7%
same,Residual rate in Stomach,"[3]; subcutaneous 1.0 mg/kg, 6 cases",40.0%
same,action on gastric emptying,[3]; subcutaneous administration,inhibited dose-dependent accelerating action on gastric emptying
same,EC50,[1],0.0213 µM
same,LD50,[4],> 500 mg/kg
CN1[C@@H]2CC[C@H]1C[C@@H](OC(=O)c1cc3ccccc3[nH]c1=O)C2 [Test Drug 2],EC50,[1]; [6],> 3 µM
CCCCn1c(=O)c(C(=O)N[C@H]2C[C@H]3CC[C@@H](C2)N3C)c(O)c2ccccc21 [Test Drug 3],EC50,[1]; [6],> 3 µM
COc1cc(N)c(Cl)cc1C(=O)NC1CCN(CCCOc2ccc(F)cc2)CC1OC (centres unmarked) [Cisapride],gastrointestinal motor functions,[5],accelerate gastrointestinal motor functions
COc1cc(N)c(Cl)cc1C(=O)NC1CCN2CCCC1C2 (centres unmarked) [renzapride],gastrointestinal motor functions,[5],accelerate gastrointestinal motor functions
